Measurements published in patent publication US20240335543A1, “IONIZABLE AMINE AND ESTER LIPIDS AND LIPID NANOPARTICLES” (Beam Therapeutics Inc., priority 2021, published 2024).

Key:
[1] = LNP hydrodynamic diameter and polydispersity index by dynamic light scattering (DLS); assay type: physicochemical; conditions: LNP with 47.5% Ionizable Lipid: 40% cholesterol: 2.5% PEG-2000 DMG: 10% DPSC, N/P 4-8
Procedure: (§1) LNPs were prepared with 47.5% Ionizable Lipid (e.g., a compound provided herein): 40% cholesterol: 2.5% PEG-2000 DMG: 10% DPSC and an N/P ratio range of 4-8. LNPs were formed by microfluidic mixing of the lipid and NA solutions using a Precision Nanosystems NanoAssemblr Spark or Benchtop series Instruments, according to the manufacturer's protocol. A ratio of aqueous to organic solvent of approximately 2:1 or 3:1 was maintained during mixing using differential flow rates. After mixing, LNPs were collected, diluted in phosphate buffer saline (PBS) or Tris-buffered saline (TBS) (approximately 1:1 v/v). Further buffer exchange was conducted using dialysis in PBS or TBS at 4° C. for 4 to 24 hours against a 20 kDa filter. After this initial dialysis, each individual LNP preparation was characterized via dynamic light scattering (DLS) to measure the size (e.g., diameter) and polydispersity. LNPs falling within specific diameter and polydispersity ranges were pooled, and further dialyzed against PBS or TBS at 4° C. for 1 to 4 hours against a 100 kDa dialysis cassette. After the second dialysis, LNPs were sterile filtered using 0.22 μm filter and stored at 4° C. for further use.
LNP hydrodynamic diameter and polydispersity index (PDI) were measured using high throughput dynamic light scattering (DLS) (Stunner, Unchained Labs). LNPs were diluted 1×TBS or PBS to an appropriate concentration and analyzed.

[2] = RNA encapsulation efficiency of LNPs by Ribogreen assay; assay type: physicochemical; conditions: LNP with 47.5% Ionizable Lipid: 40% cholesterol: 2.5% PEG-2000 DMG: 10% DPSC, N/P 4-8
Procedure: as §1
RNA concentration and encapsulation efficiency were determined by Ribogreen assay (BioTek Synergy LX plate reader).

ALAS1 target site = experiment: In vivo base editing in liver with LNPs carrying adenine base editor mRNA and sgRNA, targeted deep sequencing; conditions: Balb/C mice, tail vein, 0.15 mg/kg total RNA, ABE mRNA + ALAS1 sgRNA 1:1, tissues four to six days post-dose
Procedure: Exemplary LNP preparations were selected to determine each preparation's ability to perform base editing in a Balb/C mouse model as described herein.
Lipid nanoparticle components were dissolved in 100% ethanol at specified lipid component molar ratios. mRNA encoding an adenine base editor and a chemically-modified sgRNA was dissolved at a mass ratio of 1:1 in 50 mM citrate, pH 4.0, resulting in a concentration of NA cargo of approximately 0.1 mg/mL.
LNP preparations were formulated with molar ratios of 47.5% Ionizable Lipid: 40% Cholesterol: 2.5% PEG2000-DMG: 10% DSPC total lipid to NA mass ratio of 6 to 12.
LNP preparations were formed by microfluidic mixing of the lipid and NA solutions using a Precision Nanosystems NanoAssemblr Ignite series Instruments, according to the manufacturer's protocol.
A 3:1 ratio of aqueous to organic solvent was maintained during mixing using differential flow rates. After mixing, LNP preparations were collected, diluted in TBS (approximately 7:1 v/v), and further buffer exchange was conducted using dialysis in TBS at 4° C. for 8 to 24 hours against a 20 kDa filter. After this initial dialysis, each individual LNP preparation was characterized via dynamic light scattering (DLS) to measure size and polydispersity. pKa of a subpopulation of LNP preparations was measured via TNS assay.
After dialysis, LNP preparations were sterile filtered using 0.22 micron sterile filter and stored at 4° C. for further use. In some embodiments, LNP preparations were concentrated using 100 kDa Amicon filters per manufacturer's protocol.
Male Balb/C mice aged approximately 8-12 weeks were used in the experiments described herein. […]
Age-matched mice were also used to administer vehicle (1×TBS) via tail vein injection as a control. […] Base editing was determined by performing targeted deep sequencing analysis at the ALAS1 target site using extracted genomic DNA. […] Library size and concentration was confirmed by Fragment Analyzer (Agilent) and analyzed for whole genome sequencing using an Illumina HiSeq.

Liver = experiment: Barcoded LNP biodistribution screen, fold above input (FAI) in liver; assay type: in vivo; conditions: pooled LNP IV tail vein, mice, 4 hours post-dose
Procedure: (§2) Male and female mice aged approximately 8-12 weeks were used for studies described by the present Example. Each mouse was temporarily restrained and pooled LNP was administered IV via tail vein injection in up to five animals per experiment. Age-matched mice was also used to administer vehicle (1×TBS) via tail vein injection in up to three animals per experiment. Additional routes of administration can also be conducted including intracerebral ventricular (ICV), intracisterna manga (ICM), intrathecal (IT), intramuscular (IM), nebulization, intranasal (IN), subcutaneous (SC), intraarticular, and intradermal (ID). At 4 hours post-dose, tissues including liver, spleen, bone marrow, testes, gastrocnemius, quadricep, lung, heart, kidney, and pancreas may be collected for analysis. […]
(§3) To screen for preferential LNP delivery to a target tissues, the relative abundance of each barcode in one or more target tissues was measured and compared to the relative abundance of each barcode to its corresponding relative input abundance to determine fold above input (FAI) for each barcode. […]
(§4) The FAI is the normalized relative abundance of a barcode in a selected sample as compared to its frequency in the input. […] The FAI value of the barcode was calculated by normalizing the relative abundance in the barcode sequence counts in the isolated samples to its relative abundance in the administration input. […]

Lung = experiment: Barcoded LNP biodistribution screen, fold above input (FAI) in lung; assay type: in vivo; conditions: pooled LNP IV tail vein, mice, 4 hours post-dose
Procedure: as §2, §3, §4

Spleen = experiment: Barcoded LNP biodistribution screen, fold above input (FAI) in spleen; assay type: in vivo; conditions: pooled LNP IV tail vein, mice, 4 hours post-dose
Procedure: as §2, with “(ID).” for “(ID). At 4 hours post-dose, tissues including liver, spleen, bone marrow, testes, gastrocnemius, quadricep, lung, heart, kidney, and pancreas may be collected for analysis.”
Liver, kidney, lung, and muscle (e.g. skeletal and cardiac) tissues may be mechanically, and then enzymatically digested using a mixture of proteinases, then passed through a 70 μm filter to generate single cell suspensions. […] Tissues were treated with ACK buffer to lyse red blood cells, and then stained with fluorescently-labeled antibodies for flow cytometry and fluorescence-activated cell sorting (FACS). […]
as §3

Row | Mean Diameter (nm) [1] | Mean PDI [1] | Mean Encapsulation Efficiency (%) [2] | Structure (SMILES) | base editing observed in liver (ALAS1 target site) | FAI (Liver) (Liver; Table 3 screening experiment) | FAI (Liver) (Liver; Table 4 screening experiment) | FAI (Lung) (Lung; Table 3 screening experiment) | FAI (Lung) (Lung; Table 4 screening experiment) | FAI (Spleen) (Spleen; Table 3 screening experiment) | FAI (Spleen) (Spleen; Table 4 screening experiment)
1 | 86.5 nm | 0.09 | 75.3% | CCCCCC(CCCCC)CCOC(=O)CCCCCCCOC(=O)c1cc(C(=O)OCCCCCCCC(=O)OCCC(CCCCC)CCCCC)cc(C(=O)OCCCN(C)C)c1 [Compound 7-7, 1-(3-(dimethylamino)propyl) 3,5-bis(8-oxo-8-((3-pentyloctyl)oxy)octyl) benzene-1,3,5-tricarboxylate] |  |  |  |  |  |  | 
2 | 82.4 nm | 0.16 | 76.7% | CCCCCCC(CC)OC(=O)CCCCCCCCN(CCCCCCCCC(=O)OC(CC)CCCCCC)CCCNC(=O)c1cccc(C(=O)NCCCN(CCCCCCCCC(=O)OC(CC)CCCCCC)CCCCCCCCC(=O)OC(CC)CCCCCC)c1 (stereo not drawn) [Compound 7-1, tetra(nonan-3-yl) 9,9′,9″,9′″-(((isophthaloylbis(azanediyl))bis(propane-3,1-diyl))bis(azanetriyl))tetranonanoate] | 28.2% |  |  |  |  |  | 
3 | 110.0 nm | 0.08 | 58.4% | CCCCCCC(CC)OC(=O)CCCCCCCCN(CCCCCCCCC(=O)OC(CC)CCCCCC)CCCNC(=O)c1ccc(C(=O)NCCCN(CCCCCCCCC(=O)OC(CC)CCCCCC)CCCCCCCCC(=O)OC(CC)CCCCCC)cc1 (stereo not drawn) [Compound 7-2, tetra(nonan-3-yl) 9,9′,9″,9′″-(((terephthaloylbis(azanediyl))bis(propane-3,1-diyl))bis(azanetriyl))tetranonanoate] | 3.1% |  |  |  |  |  | 
4 | 90.8 nm | 0.11 | 84.9% | CCCCCC(CCCCC)CCOC(=O)CCCCCCCOC(=O)c1cc(C(=O)OCCCCCCCC(=O)OCCC(CCCCC)CCCCC)cc(C(=O)OCCCCN(C)C)c1 [Compound 7-9, 1-(4-(dimethylamino)butyl) 3,5-bis(8-oxo-8-((3-pentyloctyl)oxy)octyl) benzene-1,3,5-tricarboxylate] |  |  |  |  |  |  | 
5 |  |  |  | CCCCC/C=C\C/C=C\CCCCCCCCC(CCCCCCCC/C=C\C/C=C\CCCCC)OC(=O)CCCN(C)C [MC3, (6Z,9Z,28Z,31Z)-heptatriaconta-6,9,28,31-tetraen-19-yl 4-(dimethylamino) butanoate] |  | 0.31 | 1.30 | 0.65 | 1.26 | 0.45 | 1.71
6 | 124.6 nm | 0.10 | 94.7% | CCCCCCC(CC)OC(=O)CCCCCCCCN(CCCCCCCCC(=O)OC(CC)CCCCCC)CCCNC(=O)c1cc(C(=O)NCCCN(CCCCCCCCC(=O)OC(CC)CCCCCC)CCCCCCCCC(=O)OC(CC)CCCCCC)cc(C(=O)OCCN(C)C)c1 (stereo not drawn) [Compound 7-5, tetra(nonan-3-yl) 9,9′,9″,9′-((((5-((2-(dimethylamino)ethoxy)carbonyl)isophthaloyl)bis(azanediyl))bis(propane-3,1-diyl))bis(azanetriyl))tetranonanoate] | 5.2% |  |  |  |  |  | 
